In paper PMC6412877 (Molecules, 2019):
Numbered stars: 1 amine (or outer) side, 2 acyl side, 3 side chain; on linkers, the order of the positions; unused ones are H or OH. Side chains are listed from the residue outwards. Ends that are not written are not given here. Peptide text beside a SMILES is read from it. * marks the point of attachment. C18 diacid = O=C(O)CCCCCCCCCCCCCCCCC(=O)*; γGlu = O=C(O)[C@H](CCC(=O)[*:2])N[*:1]; AEEA = NCCOCCOCC(=O)O

Columns and labels:
full-length GLP-1R = settings: ref [23],[24]; cited from earlier work
Excerpt: (§1) GLP-1R, is defined by seven transmembrane helices, an extracellular N terminus, and an intracellular C terminus, which is ligand binding via the extracellular and intracellular face, respectively, belongs to family B1 of the seven-transmembrane G protein-coupled receptors.

isolated ECD (GLP-1R) = settings: ref [23],[24]; cited from earlier work
Excerpt: as §1

GLP-1R ECD = GLP-1R ECD (Homo sapiens, UniProt P43220); assay: SPR binding affinity for GLP-1R extracellular domain (Biacore 8K); settings: Table 1, peptides 01-12
Protocol: Surface Plasmon Resonance (SPR) measurements were performed with Biacore 8K (GE Health, Boston, MA, USA) for evaluating the associating affinity peptides for GLP1R ECD. Experimental details were carried out according to the Biacore 8K user’s manual.

Human GLP-1R = Human GLP-1R (Homo sapiens, UniProt P43220); assay: In vitro GLP-1R activation, human receptor; format: cell-based; settings: mean ± SD
Mouse GLP-1R = molecular target: T1, Mouse GLP-1R (Mus musculus, UniProt O35659); assay: In vitro GLP-1R activation, mouse receptor; format: cell-based; settings: mean ± SD
T1 sequence (O35659 22-463): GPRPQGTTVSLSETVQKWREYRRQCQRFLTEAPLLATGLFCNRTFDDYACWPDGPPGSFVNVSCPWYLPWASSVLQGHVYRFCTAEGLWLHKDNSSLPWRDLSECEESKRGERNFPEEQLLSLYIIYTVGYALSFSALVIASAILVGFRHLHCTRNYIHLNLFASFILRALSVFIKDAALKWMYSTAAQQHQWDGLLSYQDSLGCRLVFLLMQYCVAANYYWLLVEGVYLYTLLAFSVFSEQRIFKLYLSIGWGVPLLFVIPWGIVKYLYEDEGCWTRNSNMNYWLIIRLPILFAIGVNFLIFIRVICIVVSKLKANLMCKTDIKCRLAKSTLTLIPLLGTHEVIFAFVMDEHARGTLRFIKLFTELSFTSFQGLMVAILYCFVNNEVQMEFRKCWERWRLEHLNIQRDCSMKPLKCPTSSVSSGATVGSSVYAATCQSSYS

[1] = system: diet-induced obesity (DIO) mice; assay: Oral glucose tolerance test (glucoregulatory and insulin secretion assay) in DIO mice; format: in vivo; settings: male DIO mice, n = 6
Protocol: Half hour after single dose injection of different samples, the mice were administrated with glucose (2.0 g/kg), and then the blood glucose and insulin levels were detected before and at 15, 30, 45, 60 and 120 min by the ELISA kit (Merck).

DIO mice [2] = assay: Hypoglycemic duration test in non-fasted DIO mice; format: in vivo; settings: male DIO mice, not fasted, 25 nmol/kg single s.c., n = 6
Protocol: The antihyperglycemic efficacy of PEP20 was investigated in male DIO mice. The BGLs of PEP20 group decreased rapidly to the normoglycemic state (<15 mmol/L) in 1 h after the administration of 25 nmol/kg. […] BGLs were detected using a one-touch blood glucose meter. Glucose-lowering duration under 8.35 mmol/L BGL was also checked

DIO mice [3] = assay: Chronic in vivo study, 4 weeks, DIO mice; settings: 25 nmol/kg s.c. once daily for 4 weeks
Protocol: To further examine the therapeutic potential of PEP20, chronic in vivo studies were performed by a daily subcutaneous (s.c.) injection of PEP20 (25 nmol/kg) in DIO mice for 4 weeks. […] Body weight, food intake, and water consumption were measured daily. DIO mice were subjected to OGTT at week 0 and at week 4 to evaluate the advance of diabetic statuses. HbA1c were measured after the treatment using an AU680 automatic biochemical analyzer (Beckman Coulter, Fullerton, […]).

Sequence of GLP-1R ECD (P43220 24-139 limits assumed): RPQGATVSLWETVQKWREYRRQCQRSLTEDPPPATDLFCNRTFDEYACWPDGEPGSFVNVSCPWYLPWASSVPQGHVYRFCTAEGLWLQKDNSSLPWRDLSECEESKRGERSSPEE
Sequence of Human GLP-1R (P43220 24-463): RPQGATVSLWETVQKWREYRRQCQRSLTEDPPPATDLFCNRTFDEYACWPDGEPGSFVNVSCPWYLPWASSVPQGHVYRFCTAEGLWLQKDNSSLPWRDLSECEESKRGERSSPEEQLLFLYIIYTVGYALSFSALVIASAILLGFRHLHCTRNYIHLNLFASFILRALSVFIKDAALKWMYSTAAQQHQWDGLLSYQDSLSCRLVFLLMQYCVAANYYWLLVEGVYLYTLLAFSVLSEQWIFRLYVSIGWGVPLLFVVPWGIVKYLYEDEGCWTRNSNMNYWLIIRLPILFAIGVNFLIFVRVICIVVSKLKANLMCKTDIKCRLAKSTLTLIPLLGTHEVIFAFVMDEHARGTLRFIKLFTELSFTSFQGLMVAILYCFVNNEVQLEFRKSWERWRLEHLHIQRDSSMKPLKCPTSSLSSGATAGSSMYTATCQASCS

Row | Compound | Kd (GLP-1R ECD) [nM] | Emax (Human GLP-1R) [%] | Emax (Mouse GLP-1R) [%] | further results
1 | CC[C@H](C)[C@H](NC(=O)[C@H](Cc1ccccc1)NC(=O)[C@H](CCC(=O)O)NC(=O)[C@H](CCCCN)NC(=O)[C@H](C)NC(=O)[C@H](C)NC(=O)[C@H](CCC(N)=O)NC(=O)CNC(=O)[C@H](CCC(=O)O)NC(=O)[C@H](CC(C)C)NC(=O)[C@H](Cc1ccc(O)cc1)NC(=O)[C@H](CO)NC(=O)[C@H](CO)NC(=O)[C@@H](NC(=O)[C@H](CC(=O)O)NC(=O)[C@H](CO)NC(=O)[C@@H](NC(=O)[C@H](Cc1ccccc1)NC(=O)[C@@H](NC(=O)CNC(=O)[C@H](CCC(=O)O)NC(=O)[C@H](C)NC(=O)[C@@H](N)Cc1c[nH]cn1)[C@@H](C)O)[C@@H](C)O)C(C)C)C(=O)N[C@@H](C)C(=O)N[C@@H](Cc1c[nH]c2ccccc12)C(=O)N[C@@H](CC(C)C)C(=O)N[C@H](C(=O)N[C@@H](CCCCN)C(=O)NCC(=O)N[C@@H](CCCNC(=N)N)C(N)=O)C(C)C [GLP-1, Glucagon-like peptide-1] |  |  |  | IC50 (full-length GLP-1R): ~1 nM; IC50 (isolated ECD (GLP-1R)): ~100 nM
2 | CC(C)C[C@H](NC(=O)[C@H](Cc1ccc(O)cc1)NC(=O)[C@H](C)NC(=O)[C@H](CO)NC(=O)[C@@H]1CCCN1C(=O)[C@H](CO)NC(=O)[C@H](CO)NC(=O)[C@H](Cc1ccc(O)cc1)NC(=O)[C@H](Cc1ccccc1)NC(=O)[C@@H](N)Cc1ccccc1)C(=O)N[C@@H](CCC(=O)O)C(=O)N[C@H](C(=O)O)[C@@H](C)O [PEP01] | 740 |  |  | 
3 | CC(C)C[C@H](NC(=O)[C@H](Cc1ccc(O)cc1)NC(=O)[C@H](CO)NC(=O)[C@H](CO)NC(=O)[C@@H](NC(=O)CNC(=O)[C@H](CCC(=O)O)NC(=O)[C@H](CO)NC(=O)[C@@H](NC(=O)[C@@H](N)Cc1ccccc1)[C@@H](C)O)[C@@H](C)O)C(=O)N[C@@H](CCC(=O)O)C(=O)N[C@H](C(=O)O)[C@@H](C)O [PEP04] | 3990 |  |  | 
4 | CC[C@H](C)[C@H](NC(=O)[C@H](Cc1ccccc1)NC(=O)[C@@H](N)CCC(=O)O)C(=O)N[C@@H](C)C(=O)N[C@H](C(=O)N[C@@H](C)C(=O)N[C@@H](Cc1c[nH]c2ccccc12)C(=O)N[C@@H](CC(C)C)C(=O)N[C@H](C(=O)N[C@@H](CCCCN)C(=O)N[C@@H](CCC(N)=O)C(=O)N[C@H](C(=O)O)[C@@H](C)O)C(C)C)[C@@H](C)O [PEP06] | 2590 |  |  | 
5 | CC(C)C[C@H](NC(=O)[C@H](CCCCN)NC(=O)[C@H](C)NC(=O)[C@H](CO)NC(=O)[C@@H]1CCCN1C(=O)[C@H](CO)NC(=O)[C@H](CO)NC(=O)[C@H](Cc1ccc(O)cc1)NC(=O)[C@H](Cc1ccccc1)NC(=O)[C@@H](N)Cc1ccccc1)C(=O)N[C@@H](CCC(=O)O)C(=O)N[C@H](C(=O)NCC(=O)NCC(=O)N1CCC[C@H]1C(=O)N[C@@H](CO)C(=O)N[C@@H](CO)C(=O)NCC(=O)N[C@@H](C)C(=O)N1CCC[C@H]1C(=O)N1CCC[C@H]1C(=O)N1CCC[C@H]1C(=O)N[C@@H](CO)C(N)=O)[C@@H](C)O [PEP13] |  | 96 ± 4.1 | 110 ± 9.4 | EC50 (Human GLP-1R): 0.064 ± 0.022 nM; EC50 (Mouse GLP-1R): 0.051 ± 0.009 nM
6 | C[C@H](NC(=O)[C@H](CO)NC(=O)[C@@H]1CCCN1C(=O)[C@H](CO)NC(=O)[C@H](CO)NC(=O)[C@H](Cc1ccc(O)cc1)NC(=O)[C@H](Cc1ccccc1)NC(=O)[C@@H](N)Cc1ccccc1)C(=O)N[C@@H](Cc1ccc(O)cc1)C(=O)N[C@@H](CCCCN)C(=O)N[C@@H](CCC(=O)O)C(=O)N[C@H](C(=O)NCC(=O)NCC(=O)N1CCC[C@H]1C(=O)N[C@@H](CO)C(=O)N[C@@H](CO)C(=O)NCC(=O)N[C@@H](C)C(=O)N1CCC[C@H]1C(=O)N1CCC[C@H]1C(=O)N1CCC[C@H]1C(=O)N[C@@H](CO)C(N)=O)[C@@H](C)O [PEP14] |  | 105 ± 9.2 | 150 ± 10.9 | 
7 | CC(C)C[C@H](NC(=O)[C@H](CCCCNC(=O)COCCOCCNC(=O)COCCOCCNC(=O)CC[C@H](NC(=O)CCCCCCCCCCCCCCCCC(=O)O)C(=O)O)NC(=O)[C@H](C)NC(=O)[C@H](CO)NC(=O)[C@@H]1CCCN1C(=O)[C@H](CO)NC(=O)[C@H](CO)NC(=O)[C@H](Cc1ccc(O)cc1)NC(=O)[C@H](Cc1ccccc1)NC(=O)[C@@H](N)Cc1ccccc1)C(=O)N[C@@H](CCC(=O)O)C(=O)N[C@H](C(=O)NCC(=O)NCC(=O)N1CCC[C@H]1C(=O)N[C@@H](CO)C(=O)N[C@@H](CO)C(=O)NCC(=O)N[C@@H](C)C(=O)N1CCC[C@H]1C(=O)N1CCC[C@H]1C(=O)N1CCC[C@H]1C(=O)N[C@@H](CO)C(=O)O)[C@@H](C)O [PEP17] (H-FFYSSPSAK([AEEA-AEEA-γGlu-C18 diacid])LETGGPSSGAPPPS-OH; N-terminus and C-terminus assumed) |  | 79 ± 6.4 | 68 ± 5.9 | 
8 | C[C@H](NC(=O)[C@H](CO)NC(=O)[C@@H]1CCCN1C(=O)[C@H](CO)NC(=O)[C@H](CO)NC(=O)[C@H](Cc1ccc(O)cc1)NC(=O)[C@H](Cc1ccccc1)NC(=O)[C@@H](N)Cc1ccccc1)C(=O)N[C@@H](Cc1ccc(O)cc1)C(=O)N[C@@H](CCCCNC(=O)COCCOCCNC(=O)COCCOCCNC(=O)CC[C@H](NC(=O)CCCCCCCCCCCCCCCCC(=O)O)C(=O)O)C(=O)N[C@@H](CCC(=O)O)C(=O)N[C@H](C(=O)NCC(=O)NCC(=O)N1CCC[C@H]1C(=O)N[C@@H](CO)C(=O)N[C@@H](CO)C(=O)NCC(=O)N[C@@H](C)C(=O)N1CCC[C@H]1C(=O)N1CCC[C@H]1C(=O)N1CCC[C@H]1C(=O)N[C@@H](CO)C(=O)O)[C@@H](C)O [PEP18] |  | 78 ± 6.4 | 78 ± 3.5 | 
9 | CC(C)C[C@H](NC(=O)[C@H](Cc1ccc(O)cc1)NC(=O)[C@H](C)NC(=O)[C@H](CO)NC(=O)[C@@H]1CCCN1C(=O)[C@H](CO)NC(=O)[C@H](CO)NC(=O)[C@H](Cc1ccc(O)cc1)NC(=O)[C@H](Cc1ccccc1)NC(=O)[C@@H](N)Cc1ccccc1)C(=O)N[C@@H](CCCCNC(=O)COCCOCCNC(=O)COCCOCCNC(=O)CC[C@H](NC(=O)CCCCCCCCCCCCCCCCC(=O)O)C(=O)O)C(=O)N[C@H](C(=O)NCC(=O)NCC(=O)N1CCC[C@H]1C(=O)N[C@@H](CO)C(=O)N[C@@H](CO)C(=O)NCC(=O)N[C@@H](C)C(=O)N1CCC[C@H]1C(=O)N1CCC[C@H]1C(=O)N1CCC[C@H]1C(=O)N[C@@H](CO)C(=O)O)[C@@H](C)O [PEP19] (H-FFYSSPSAYLK([AEEA-AEEA-γGlu-C18 diacid])TGGPSSGAPPPS-OH; N-terminus and C-terminus assumed) |  | 89 ± 6.2 | 83 ± 3.2 | 
10 | CC(C)C[C@H](NC(=O)[C@H](Cc1ccc(O)cc1)NC(=O)[C@H](C)NC(=O)[C@H](CO)NC(=O)[C@@H]1CCCN1C(=O)[C@H](CO)NC(=O)[C@H](CO)NC(=O)[C@H](Cc1ccc(O)cc1)NC(=O)[C@H](Cc1ccccc1)NC(=O)[C@@H](N)Cc1ccccc1)C(=O)N[C@@H](CCC(=O)O)C(=O)N[C@@H](CCCCNC(=O)COCCOCCNC(=O)COCCOCCNC(=O)CC[C@H](NC(=O)CCCCCCCCCCCCCCCCC(=O)O)C(=O)O)C(=O)NCC(=O)NCC(=O)N1CCC[C@H]1C(=O)N[C@@H](CO)C(=O)N[C@@H](CO)C(=O)NCC(=O)N[C@@H](C)C(=O)N1CCC[C@H]1C(=O)N1CCC[C@H]1C(=O)N1CCC[C@H]1C(=O)N[C@@H](CO)C(=O)O [PEP20] (H-FFYSSPSAYLEK([AEEA-AEEA-γGlu-C18 diacid])GGPSSGAPPPS-OH; N-terminus and C-terminus assumed) |  | 98 ± 8.1 | 99 ± 7.2 | plasma insulin concentrations from 15 to 60 min versus control ([1]; OGTT, 25 nmol/kg s.c., ELISA): significantly greater than those of the control group; glucose-lowering percentage compared with vehicle control group ([1]; OGTT, 25 nmol/kg single s.c., glucose 2.0 g/kg): 60.2%; blood glucose level (BGL) half an hour after glucose challenge ([1]; 25 nmol/kg single s.c., oral glucose 2.0 g/kg, vehicle 23.6 ± 3.1): 10.1 mmol/L; duration of glucose-lowering effect (DIO mice [2]; followed for 96 h): at least 96 h; lowering of glucose level for 0–96 h (AUC0–96 h) compared with vehicle group (DIO mice [2]): 63.8%; time to normoglycemic state (<15 mmol/L) after administration (DIO mice [2]): ≤ 1 h; body weight gain (DIO mice [3]; n = 6): effectively suppressed; decrease of OGTT AUC at 4 weeks compared with week 0 (DIO mice [3]; n = 6): 22.1%; food intake (DIO mice [3]; n = 6): effectively suppressed; HbA1c versus control group (DIO mice [3]; p < 0.001, n = 6): reduction
11 | FFYSSPSAYLEKGGPSSGAPPPS [PEP16] |  | 92 ± 7.1 | 93 ± 9.3 | 
12 | FFYSSPSAYLKTGGPSSGAPPPS [PEP15] |  | 78 ± 9.1 | 73 ± 6.4 | 
13 | KQYSSPTAWLVG [PEP03] | 1750 |  |  | 
